Key:
Mu-type opioid receptor = Mu-type opioid receptor (Cavia porcellus, UniProt P97266); experiment: Displacement of [3H]-DAMGO from mu opioid receptor in guinea pig brain membrane after 120 mins by scintillation counting; type: cell membranes
[1] = molecular target: Kappa-type opioid receptor (Cavia porcellus, UniProt P41144); experiment: Displacement of [3H]-U-69593 from kappa opioid receptor in guinea pig brain membrane after 120 mins by scintillation counting; type: cell membranes
[2] = molecular target: T1, Kappa-type opioid receptor (Homo sapiens, UniProt P41145); experiment: Binding affinity to kappa opioid receptor (unknown origin)
[3] = molecular target: T1, Kappa-type opioid receptor; experiment: Intrinsic activity at kappa opioid receptor in human HEK293 cells at 100 nM after 30 mins by [35S]GTPgammaS binding assay relative to U-69593; type: functional, cell-based
[4] = molecular target: Delta-type opioid receptor (Rattus norvegicus, UniProt P33533); experiment: Displacement of [3H]-DPDPE from delta opioid receptor in rat brain membrane after 120 mins by scintillation counting; type: cell membranes
Sequence of Delta-type opioid receptor (P33533 whole entry): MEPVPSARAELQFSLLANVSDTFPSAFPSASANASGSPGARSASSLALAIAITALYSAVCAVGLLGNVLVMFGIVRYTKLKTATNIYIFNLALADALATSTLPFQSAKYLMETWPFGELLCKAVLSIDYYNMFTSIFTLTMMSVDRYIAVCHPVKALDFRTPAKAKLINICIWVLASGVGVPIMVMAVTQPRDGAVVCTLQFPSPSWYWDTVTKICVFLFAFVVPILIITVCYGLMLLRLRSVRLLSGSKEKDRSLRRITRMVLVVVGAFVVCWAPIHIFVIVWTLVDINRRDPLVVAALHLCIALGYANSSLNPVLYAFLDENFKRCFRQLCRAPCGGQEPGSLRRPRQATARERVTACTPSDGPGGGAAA

Sequence of Mu-type opioid receptor (P97266 whole entry): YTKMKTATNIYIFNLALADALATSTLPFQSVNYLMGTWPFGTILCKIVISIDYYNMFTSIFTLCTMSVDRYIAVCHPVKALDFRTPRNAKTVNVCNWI
T1 sequence (P41145 whole entry): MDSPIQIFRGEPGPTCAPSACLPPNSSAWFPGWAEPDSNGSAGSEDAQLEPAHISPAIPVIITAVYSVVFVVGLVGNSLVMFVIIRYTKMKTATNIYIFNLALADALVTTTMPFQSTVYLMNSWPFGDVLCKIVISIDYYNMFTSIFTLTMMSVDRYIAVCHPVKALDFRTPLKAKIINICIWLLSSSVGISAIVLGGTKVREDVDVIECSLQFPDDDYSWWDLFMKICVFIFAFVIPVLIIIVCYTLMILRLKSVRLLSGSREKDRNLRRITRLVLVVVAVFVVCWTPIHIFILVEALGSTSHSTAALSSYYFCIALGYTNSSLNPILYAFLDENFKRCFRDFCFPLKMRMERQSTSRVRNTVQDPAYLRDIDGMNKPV
Sequence of Kappa-type opioid receptor (Cavia porcellus, UniProt P41144) (P41144 whole entry): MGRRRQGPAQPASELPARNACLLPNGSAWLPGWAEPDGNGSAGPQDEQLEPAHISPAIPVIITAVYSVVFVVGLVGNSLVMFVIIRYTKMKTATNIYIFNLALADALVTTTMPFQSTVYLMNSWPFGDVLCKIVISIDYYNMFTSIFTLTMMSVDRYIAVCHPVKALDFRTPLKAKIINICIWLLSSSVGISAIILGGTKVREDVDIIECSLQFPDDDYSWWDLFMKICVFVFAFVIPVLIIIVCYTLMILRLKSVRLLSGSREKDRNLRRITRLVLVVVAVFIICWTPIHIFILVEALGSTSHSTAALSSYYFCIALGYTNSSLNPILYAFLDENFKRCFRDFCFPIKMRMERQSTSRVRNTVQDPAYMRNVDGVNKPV

| SMILES | Ki (Mu-type opioid receptor) | also measured |
| --- | --- | --- |
| COC(=O)N1CCN(C(=O)Cc2ccc(Cl)c(Cl)c2)[C@H]2[C@H](N3CCCC3)CCC[C@H]21 (racemic) | 0.113 µM |  |
| COC(=O)N1CCN(C(=O)Cc2ccc(Cl)c(Cl)c2)[C@@H]2[C@@H](N3CCCC3)CCC[C@@H]21 | 0.043 µM |  |
| COC(=O)N1CCN(C(=O)Cc2ccc(Cl)c(Cl)c2)[C@H]2[C@H](N3CCCC3)CCC[C@H]21 | 0.544 µM |  |
| COC(=O)N1CCN(C(=O)Cc2ccc(Cl)c(Cl)c2)[C@H]2[C@H](N3CCCC3)CCC[C@@H]21 (stereo in doubt) | 0.309 µM |  |
| COC(=O)N1CCN(C(=O)Cc2ccc(Cl)c(Cl)c2)[C@H]2[C@@H](N3CCCC3)CCC[C@@H]21 (stereo in doubt) | 0.343 µM |  |
| COC(=O)N1CCN(C(=O)Cc2ccc(Cl)c(Cl)c2)[C@H](CN2CCCC2)C1 |  | Ki [1]: 0.00036 µM; Ki [2]: 0.36 µM |
| COC(=O)N1CCN(C(=O)Cc2ccc(Cl)c(Cl)c2)[C@@H]2[C@H](N3CCCC3)CCC[C@H]21 (stereo in doubt) | 0.118 µM |  |
| CN(C(=O)/C=C/c1ccoc1)[C@@H]1CC[C@@]2(O)[C@H]3Cc4ccc(O)c5c4[C@@]2(CCN3CC2CC2)[C@H]1O5 [NALFURAFINE] |  | Activity [3]: 100%; Ki [4]: 0.00037 µM |

From ChEMBL document CHEMBL3632621, “Conformationally restricted κ-opioid receptor agonists: Synthesis and pharmacological evaluation of diastereoisomeric and enantiomeric decahydroquinoxalines” (Bioorg Med Chem Lett, 2015)
